# Measurements taken from patent EP0115820A2, “Cephalosporin derivatives and process for their preparation” (Kaken Pharmaceutical Co., Ltd., priority 1983, dated 1984).
# Where two headings read alike, the source gives them in different places.
# Assays:
# Assay in all cases: Minimum inhibitory concentration (MIC)
# Assay type in all cases: cell-based
# [1] = tested on: Escherichia coli NIHJ JC-2
# Excerpt: (§1) The cephalosporin derivatives of the present invention are novel substances, and the antimicrobial activities of their sodium salts are shown by the minimum inhibitory concentrations (MIC, µg/ml) in Table 1, as compared with a typical known cephalosporin compound.
# [2] = tested on: Pseudomonas aeruginosa K-13
# Excerpt: as §1
# [3] = tested on: Klebsiella pneumoniae No. 42
# Excerpt: as §1
# [4] = tested on: Pseudomonas aeruginosa Y-1
# Excerpt: as §1
# Proteus vulgaris GN-76 = tested on: Proteus vulgaris GN-76
# Excerpt: as §1
# [5] = tested on: Pseudomonas aeruginosa E-2
# Excerpt: as §1
# [6] = tested on: Staphylococcus aureus 209 P JC-1
# Excerpt: as §1
# [7] = tested on: Serratia marcescens No. 16-2
# Excerpt: as §1
# [8] = NIHJJC2, Escherichia coli NIHJ JC-2, bacterial suspension 10^6 cells/ml, sodium salts tested, read-out: Minimum inhibitory concentration
# [9] = K13, Pseudomonas aeruginosa K-13, bacterial suspension 10^6 cells/ml, sodium salts tested, read-out: Minimum inhibitory concentration
# [10] = Klebsiella pneumoniae No. 42, bacterial suspension 10^6 cells/ml, sodium salts tested, read-out: Minimum inhibitory concentration
# [11] = Y1, Pseudomonas aeruginosa Y-1, bacterial suspension 10^6 cells/ml, sodium salts tested, read-out: Minimum inhibitory concentration
# [12] = GN76, Proteus vulgaris GN-76, bacterial suspension 10^6 cells/ml, sodium salts tested, read-out: Minimum inhibitory concentration
# [13] = E2, Pseudomonas aeruginosa E-2, bacterial suspension 10^6 cells/ml, sodium salts tested, read-out: Minimum inhibitory concentration
# [14] = 209PJC1, Staphylococcus aureus 209 P JC-1, bacterial suspension 10^6 cells/ml, sodium salts tested, read-out: Minimum inhibitory concentration
# [15] = NO.162, Serratia marcescens No. 16-2, bacterial suspension 10^6 cells/ml, sodium salts tested, read-out: Minimum inhibitory concentration
SMILES,"MIC ([1]; Escherichia coli, NIHJJC2, read-out: Minimum inhibitory concentration) [µg/mL]","MIC ([2]; Pseudomonas aeruginosa, K13, read-out: Minimum inhibitory concentration) [µg/mL]","MIC ([3]; Klebsiella pneumoniae, NO.42, read-out: Minimum inhibitory concentration) [µg/mL]","MIC ([4]; Pseudomonas aeruginosa, Y1, read-out: Minimum inhibitory concentration) [µg/mL]","MIC (Proteus vulgaris GN-76; Proteus vulgaris, GN76, read-out: Minimum inhibitory concentration) [µg/mL]","MIC ([5]; Pseudomonas aeruginosa, E2, read-out: Minimum inhibitory concentration) [µg/mL]","MIC ([6]; Staphylococcus aureus, 209PJC1, read-out: Minimum inhibitory concentration) [µg/mL]","MIC ([7]; Serratia marcescens, NO.162, read-out: Minimum inhibitory concentration) [µg/mL]","MIC [1, 8] [µg/mL]","MIC [2, 9] [µg/mL]","MIC [3, 10] [µg/mL]","MIC [4, 11] [µg/mL]",MIC (Proteus vulgaris GN-76; [12]) [µg/mL],"MIC [5, 13] [µg/mL]","MIC [6, 14] [µg/mL]","MIC [7, 15] [µg/mL]"
"CO[C@@]1(NC(=O)CSCC#N)C(=O)N2C(C(=O)O)=C(CSc3nnnn3C)CS[C@@H]21 [Cefmetazole, reference compound]",0.78,3200,1.56,3200,3.12,3200,0.39,> 50,–,–,–,–,–,–,–,–
"CO[C@@]1(NC(=O)C(NC(=O)c2ccc(OC(C)=O)c(OC(C)=O)c2)c2csc(N)n2)C(=O)N2C(C(=O)O)=C(CSc3nnnn3C)CS[C@@H]21 (mixture of isomers) [Example 10, 7α-methoxy-7β-[DL-2-(3,4-diacetoxy-benzoylamino)-2-(2-aminothiazol-4-yl)acetamidol-3-(1-methyl-lH-tetrazol-5-yl-thiomethyl)-3-cephem-4-carboxylic acid]",–,–,–,–,–,–,–,–,6.25,0.2,0.2,0.2,1.56,0.2,0.78,3.12
"CO[C@@]1(NC(=O)C(NC(=O)c2ccc(O)c(O)c2)c2csc(N)n2)C(=O)N2C(C(=O)O)=C(CSc3nnnn3C)CS[C@@H]21 (mixture of isomers) [Example 12, 7α-methoxy-7β-[DL-2-(3,4-dihydroxy-benzoylamino)-2-(2-aminothiazol-4-yl)acetamido]-3-(l-methyl-lH-tetrazol-5-yl-thiomethyl)-3-cephem-4-carboxylic acid]",–,–,–,–,–,–,–,–,6.25,0.39,0.1,0.2,1.56,0.2,1.56,0.78
"CO[C@@]1(NC(=O)C(NC(=O)c2cc(OC(C)=O)c(OC(C)=O)c(OC(C)=O)c2)c2csc(N)n2)C(=O)N2C(C(=O)O)=C(CSc3nnnn3C)CS[C@@H]21 (mixture of isomers) [Example 11, 7α-methoxy-7β-[DL-2-(3,4,5-triacetoxy-benzoylamino)-2-(2-aminothiazol-4-yl)acetamido]-3-(1-methyl-lH-tetrazol-5-yl-thiomethyl)-3-cephem-4-carboxylic acid]",–,–,–,–,–,–,–,–,6.25,0.78,0.39,0.78,3.12,0.39,6.25,6.25
"CC(=O)Oc1cccc(C(=O)NC(C(=O)N[C@@H]2C(=O)N3C(C(=O)O)=C(CSc4nnnn4C)CS[C@H]23)c2csc(N)n2)c1OC(C)=O (mixture of isomers) [Example 4, 7β-[DL-2-(2,3-diacetoxybenzoylamino)-2-(2-aminothiazol-4-yl)acetamidol-3-(l-methyl-lH-tetrazol-5-yl-thiomethyl)-3-cephem-4-carboxylic acid]",–,–,–,–,–,–,–,–,3.12,0.39,1.56,0.78,3.12,1.56,1.56,200
"CC(=O)Oc1cc(C(=O)NC(C(=O)N[C@@H]2C(=O)N3C(C(=O)O)=C(CSc4nnnn4C)CS[C@H]23)c2csc(N)n2)cc(OC(C)=O)c1OC(C)=O (mixture of isomers) [Example 3, 7β-[DL-2-(3,4,5-triacetoxybenzoylamino)-2-(2-aminothiazol-4-yl)acetamidol-3-(l-methyl-lH-tetrazol-5-yl-thiomethyl)-3-cephem-4-carboxylic acid]",–,–,–,–,–,–,–,–,0.78,0.2,< 0.05,0.1,0.39,0.2,0.78,0.05
"CC(=O)OCC1=C(C(=O)O)N2C(=O)[C@@H](NC(=O)C(NC(=O)c3cccc(O)c3)c3csc(N)n3)[C@H]2SC1 (mixture of isomers) [Example 23, 73-[DL-2-(3-hydroxybenzoylamino)-2-(2-aminothiazol-4-yl)acetamidolcephalosporic acid]",–,–,–,–,–,–,–,–,6.25,> 200,12.5,> 200,25,> 200,0.39,> 200
"CO[C@@]1(NC(=O)C(NC(=O)c2ccc(O)c(O)c2)c2csc(N)n2)C(=O)N2C(C(=O)O)=C(COC(C)=O)CS[C@@H]21 (mixture of isomers) [Example 9, 7α-methoxy-7β-[DL-2-(3,4-dihydroxy-benzoylamino)-2-(2-aminothiazol-4-yl)acetamidolcephalosporic acid]",–,–,–,–,–,–,–,–,12.5,0.78,0.39,0.39,3.12,0.39,1.56,3.12
"CC(=O)OCC1=C(C(=O)O)N2C(=O)[C@@H](NC(=O)C(NC(=O)c3ccc(O)cc3)c3csc(N)n3)[C@H]2SC1 (mixture of isomers) [Example 24, 7β-[DL-2-(4-hydroxybenzoylamino)-2-(2-aminothiazol-4-yl)acetamido]cephalosporic acid]",–,–,–,–,–,–,–,–,3.12,25,6.25,50,25,25,0.39,> 200
"CC(=O)OCC1=C(C(=O)O)N2C(=O)[C@@H](NC(=O)C(NC(=O)c3ccccc3O)c3csc(N)n3)[C@H]2SC1 (mixture of isomers) [Example 22, 7β-[DL-2-(2-hydroxybenzoylamino)-2-(2-aminothiazol-4-yl)acetamido]cephalosporic acid]",–,–,–,–,–,–,–,–,3.12,25,3.12,100,6.25,50,0.39,> 200
"CO[C@@]1(NC(=O)C(NC(=O)c2cccc(OC(C)=O)c2OC(C)=O)c2csc(N)n2)C(=O)N2C(C(=O)O)=C(COC(C)=O)CS[C@@H]21 (mixture of isomers) [Example 8, 7α-methoxy-7β-(DL-2-(2,3-diacetoxy-benzoylamino)-2-(2-aminothiazol-4-yl)acetamido]-cephalosporic acid]",–,–,–,–,–,–,–,–,25,6.25,0.78,3.12,3.12,1.56,6.25,3.12
"Cn1nnnc1SCC1=C(C(=O)O)N2C(=O)[C@@H](NC(=O)C(NC(=O)c3ccc(O)c(O)c3)c3csc(N)n3)[C@H]2SC1 (mixture of isomers) [Example 2, 7β-[DL-2-(3,4-dihydroxybenzoylamino)-2-(2-aminothiazol-4-yl)acetamido]-3-(1-methyl-1H-tetrazol-5-yl-thiomethyl)-3-cephem-4-carboxylic acid]",–,–,–,–,–,–,–,–,0.78,0.1,0.2,0.2,6.25,0.39,0.39,100
"CCOC(=O)Oc1ccc(C(=O)NC(C(=O)N[C@@H]2C(=O)N3C(C(=O)O)=C(CSc4nnnn4C)CS[C@H]23)c2csc(N)n2)cc1OC(=O)OCC (mixture of isomers) [Example 5, 7β-[DL-2-(3,4-diethoxycarbonyloxy-benzoylamino)-2-(2-aminothiazol-4-yl)acetamido]-3-(l-methyl-lH-tetrazol-5-yl-thiomethyl)-3-cephem-4-carboxylic acid]",–,–,–,–,–,–,–,–,0.78,0.2,0.2,0.1,6.25,0.39,0.39,50
"CC(=O)OCC1=C(C(=O)O)N2C(=O)[C@@H](NC(=O)C(NC(=O)c3cccc(OC(C)=O)c3)c3csc(N)n3)[C@H]2SC1 (mixture of isomers) [Example 16, 7β-[DL-2-(3-acetoxybenzoylamino)-2-(2-aminothiazol-4-yl)acetamidolcephalosporic acid]",–,–,–,–,–,–,–,–,1.56,200,3.12,> 200,6.25,200,0.39,> 200
"CO[C@@]1(NC(=O)C(NC(=O)c2cc(OC(C)=O)c(OC(C)=O)c(OC(C)=O)c2)c2csc(N)n2)C(=O)N2C(C(=O)O)=C(COC(C)=O)CS[C@@H]21 (mixture of isomers) [Example 7, 7α-methoxy-7β-[DL-2-(3,4,5-triacetoxy-benzoylamino)-2-(2-aminothiazol-4-yl)acetamido]-cephalosporic acid]",–,–,–,–,–,–,–,–,12.5,1.56,1.56,0.78,12.5,0.78,6.25,50
